The structures appear in SMILES notation. The source made the active and inactive calls. The rule behind the calls is not given here.

In the data set the test system is rodent lifetime carcinogenesis bioassay, tumor incidence TD50. As to the kind of experiment: carcinogenic potency in animals, long-term in vivo studies, CPDB compilation (AID 1745844).

Turning to `COc1ccc(C)cc1N`, the TD50 reads like this: (mouse, strain B6C3F1, females, in feed, site: any site (literature study), lesion: several types, types named in the paper, dosed 97 weeks, study length 97 weeks) 75 mg/kg/day; (mouse, strain B6C3F1, females, in feed, site: liver + urinary bladder, lesion: hepatocellular adenoma + hepatocellular carcinoma + carcinoma, NOS + neoplasm, NOS, malignant + squamous-cell carc, dosed 97 weeks, study length 97 weeks) 69 mg/kg/day; (mouse, strain B6C3F1, females, in feed, site: liver, lesion: hepatocellular adenoma + hepatocellular carcinoma + neoplastic nodule, dosed 97 weeks, study length 97 weeks) 301 mg/kg/day; (mouse, strain B6C3F1, females, in feed, site: liver, lesion: hepatocellular adenoma + hepatocellular carcinoma, dosed 97 weeks, study length 97 weeks) 301 mg/kg/day; (mouse, strain B6C3F1, females, in feed, site: liver, lesion: hepatocellular carcinoma, dosed 97 weeks, study length 97 weeks) 315 mg/kg/day; (mouse, strain B6C3F1, females, in feed, site: lung, lesion: alveolar/bronchiolar adenoma + alveolar/bronchiolar carcinoma, dosed 97 weeks, study length 97 weeks) 3810 mg/kg/day. The TD50 was 69 mg/kg/day (mouse, strain B6C3F1, females, in feed, site: urinary bladder, lesion: carcinoma, NOS + neoplasm, NOS, malignant + squamous-cell carcinoma + transitional-cell carcinoma, dosed 97 weeks, study length 97 weeks); 70.1 mg/kg/day (mouse, strain B6C3F1, females, in feed, site: urinary bladder, lesion: carcinoma, NOS + squamous-cell carcinoma + transitional-cell carcinoma, dosed 97 weeks, study length 97 weeks); 46.4 mg/kg/day (mouse, strain B6C3F1, males, in feed, site: any site (literature study), lesion: several types, types named in the paper, dosed 97 weeks, study length 97 weeks); 255 mg/kg/day (mouse, strain B6C3F1, males, in feed, site: liver, lesion: hepatocellular adenoma + hepatocellular carcinoma + neoplastic nodule, dosed 97 weeks, study length 97 weeks); 1170 mg/kg/day (mouse, strain B6C3F1, males, in feed, site: lung, lesion: alveolar/bronchiolar adenoma + alveolar/bronchiolar carcinoma, dosed 97 weeks, study length 97 weeks); 44.7 mg/kg/day (mouse, strain B6C3F1, males, in feed, site: urinary bladder, lesion: squamous-cell carcinoma + transitional-cell carcinoma, dosed 97 weeks, study length 97 weeks). Further, the TD50 (rat, strain Fischer 344, females, in feed, site: adrenal gland, lesion: cortical adenoma, dosed 104 weeks, study length 105 weeks) came out at 1490 mg/kg/day; the TD50 (rat, strain Fischer 344, females, in feed, site: any site (literature study), lesion: several types, types named in the paper, dosed 104 weeks, study length 105 weeks) was 93.8 mg/kg/day; the TD50 (rat, strain Fischer 344, females, in feed, site: liver, lesion: hepatocellular adenoma + hepatocellular carcinoma + neoplastic nodule, dosed 104 weeks, study length 105 weeks) turned out to be 2180 mg/kg/day; the TD50 (rat, strain Fischer 344, females, in feed, site: nasal cavity + urinary bladder, lesion: olfactory neuroblastoma + neoplasm, NOS + papillary carcinoma + squamous-cell carcinoma + transitional-cell carcinoma, dosed 104 weeks, study length 105 weeks) was determined as 110 mg/kg/day; the TD50 (rat, strain Fischer 344, females, in feed, site: nasal cavity, lesion: olfactory neuroblastoma, dosed 104 weeks, study length 105 weeks) is 1190 mg/kg/day; the TD50 (rat, strain Fischer 344, females, in feed, site: urinary bladder, lesion: neoplasm, NOS + papillary carcinoma + squamous-cell carcinoma + transitional-cell carcinoma, dosed 104 weeks, study length 105 weeks) is 110 mg/kg/day. The TD50 runs as follows: (rat, strain Fischer 344, females, in feed, site: uterus, lesion: endometrial stromal polyp, dosed 104 weeks, study length 105 weeks) 913 mg/kg/day; (rat, strain Fischer 344, males, in feed, site: any site (literature study), lesion: several types, types named in the paper, dosed 104 weeks, study length 105 weeks) 98 mg/kg/day; (rat, strain Fischer 344, males, in feed, site: brain + brain stem, lesion: glioma, NOS, dosed 104 weeks, study length 105 weeks) 3510 mg/kg/day; (rat, strain Fischer 344, males, in feed, site: liver + nasal cavity + nasopharynx + urinary bladder, lesion: hepatocellular carcinoma + mixed hepato/cholangio carcinoma + neoplastic nodule + adenoma, NOS + carcinoma, NOS + neuroblastoma + ne, dosed 104 weeks, study length 105 weeks) 76.3 mg/kg/day; (rat, strain Fischer 344, males, in feed, site: liver, lesion: hepatocellular adenoma + hepatocellular carcinoma + neoplastic nodule, dosed 104 weeks, study length 105 weeks) 443 mg/kg/day; (rat, strain Fischer 344, males, in feed, site: liver, lesion: hepatocellular carcinoma + mixed hepato/cholangio carcinoma + neoplastic nodule, dosed 104 weeks, study length 105 weeks) 406 mg/kg/day. Further, the TD50 is 4620 mg/kg/day (rat, strain Fischer 344, males, in feed, site: nasal cavity + nasopharynx, lesion: carcinoma, NOS + neoplasm, NOS, malignant + adenocarcinoma, NOS, dosed 104 weeks, study length 105 weeks); 397 mg/kg/day (rat, strain Fischer 344, males, in feed, site: nasal cavity, lesion: adenoma, NOS + carcinoma, NOS + neuroblastoma + neoplasm, NOS, malignant + olfactory neuroblastoma, dosed 104 weeks, study length 105 weeks); 450 mg/kg/day (rat, strain Fischer 344, males, in feed, site: nasal cavity, lesion: neuroblastoma + olfactory neuroblastoma, dosed 104 weeks, study length 105 weeks); 165 mg/kg/day (rat, strain Fischer 344, males, in feed, site: testis, lesion: interstitial-cell tumor, dosed 104 weeks, study length 105 weeks); 88.4 mg/kg/day (rat, strain Fischer 344, males, in feed, site: urinary bladder, lesion: papillary carcinoma + squamous-cell carcinoma + transitional-cell carcinoma + transitional-cell papilloma + undifferentiated car, dosed 104 weeks, study length 105 weeks).

For the compound `OCC(O)[C@@H](O)[C@H](O)[C@H](O)CO[C@H]1O[C@H](CO)[C@@H](O)[C@H](O)[C@H]1O` (stereo partly specified), the TD50 by setting is: (mouse, strain Cpb:Swiss random, females, in feed, site: any site (literature study), lesion: one or several types, types not named, dosed 104 weeks, study length 104 weeks) 83400 mg/kg/day (inactive); (mouse, strain Cpb:Swiss random, females, in feed, site: lung, lesion: alveolar-cell tumor, dosed 104 weeks, study length 104 weeks) 92600 mg/kg/day (inactive); (mouse, strain Cpb:Swiss random, males, in feed, site: lung, lesion: alveolar-cell tumor, dosed 94 weeks, study length 94 weeks) 26200 mg/kg/day (inactive). Besides, the carcinogen call (mouse, strain Cpb:Swiss random, females, in feed, site: liver, lesion: one or several types, types not named, dosed 104 weeks, study length 104 weeks) is “negative (inactive)”; the carcinogen call (mouse, strain Cpb:Swiss random, males, in feed, site: any site (literature study), lesion: one or several types, types not named, dosed 94 weeks, study length 94 weeks) is “negative (inactive)”; the carcinogen call (mouse, strain Cpb:Swiss random, males, in feed, site: liver, lesion: hepatocellular carcinoma, dosed 94 weeks, study length 94 weeks) is “negative (inactive)”; the carcinogen call (mouse, strain Cpb:Swiss random, males, in feed, site: liver, lesion: neoplastic nodule, dosed 94 weeks, study length 94 weeks) was “negative (inactive)”.

Take `O=NN(CC(F)(F)F)CC(F)(F)F`: under “rat, strain Fischer 344, females, in drinking water, site: liver, lesion: malignant tumor, dosed 30 weeks, study length 130 weeks”, the TD50 is 4.98 mg/kg/day (inactive). The carcinogen call (rat, strain Sprague-Dawley, males, in drinking water, site: several sites, sites named in the paper, lesion: malignant tumor, dosed 30 weeks, study length 114 weeks) was “negative (inactive)”.

On to `COC(C(=O)O)c1ccccc1` (stereo unspecified), for which the TD50 is 227 mg/kg/day (inactive) (mouse, strain B6AKF1, females, oral dosing, site: any site (literature study), lesion: several types, types named in the paper, dosed 76 weeks, study length 76 weeks); 236 mg/kg/day (inactive) (mouse, strain B6AKF1, females, oral dosing, site: lung, lesion: adenoma, dosed 76 weeks, study length 76 weeks); 139 mg/kg/day (inactive) (mouse, strain B6AKF1, males, oral dosing, site: any site (literature study), lesion: several types, types named in the paper, dosed 76 weeks, study length 76 weeks); 3620 mg/kg/day (inactive) (mouse, strain B6AKF1, males, oral dosing, site: liver, lesion: hepatoma, dosed 76 weeks, study length 76 weeks); 157 mg/kg/day (inactive) (mouse, strain B6AKF1, males, oral dosing, site: lung, lesion: adenoma, dosed 76 weeks, study length 76 weeks); 157 mg/kg/day (inactive) (mouse, strain B6C3F1, females, oral dosing, site: any site (literature study), lesion: several types, types named in the paper, dosed 76 weeks, study length 76 weeks). Besides, the TD50 (mouse, strain B6C3F1, females, oral dosing, site: lung, lesion: adenoma, dosed 76 weeks, study length 76 weeks) is 244 mg/kg/day (inactive); the TD50 (mouse, strain B6C3F1, males, oral dosing, site: all sites, lesion: reticulum-cell sarcoma, dosed 76 weeks, study length 76 weeks) is 82.1 mg/kg/day (inactive); the TD50 (mouse, strain B6C3F1, males, oral dosing, site: any site (literature study), lesion: several types, types named in the paper, dosed 76 weeks, study length 76 weeks) is 54.2 mg/kg/day (inactive); the TD50 (mouse, strain B6C3F1, males, oral dosing, site: liver, lesion: hepatoma, dosed 76 weeks, study length 76 weeks) was 227 mg/kg/day (inactive). Further, the carcinogen call is, setting by setting: (mouse, strain B6AKF1, females, oral dosing, site: liver, lesion: hepatoma, dosed 76 weeks, study length 76 weeks) “negative (inactive)”; (mouse, strain B6C3F1, females, oral dosing, site: liver, lesion: hepatoma, dosed 76 weeks, study length 76 weeks) “negative (inactive)”; (mouse, strain B6C3F1, males, oral dosing, site: lung, lesion: several types, types named in the paper, dosed 76 weeks, study length 76 weeks) “negative (inactive)”.

A word on the TD50: it is the dose at which the toxic effect under study appears in half of the subjects.

The values are drawn from PubChem BioAssay AID1745844 (Carcinogenic Potency Database (CPDB), 2022).
